Biological target: T1, HPK1 (Homo sapiens, UniProt Q92918)
T1 construct: A HiBiT tag was introduced by CRISPR on the N terminus of HPK1 in Jurkat cells; host or cells: Jurkat cells (ATCC TIB-152), monoclonal line with CRISPR knock-in of HiBiT at the endogenous HPK1 locus
Experiment: HPK1 Cellular HiBit Degradation Assay
Type: cell-based
Details: HiBiT HPK1 Jurkat cells, 24 hrs; for DC50: concentration at which 50% of HPK1 was remaining, read-out: DC50 Category; for Dmax: Jurkat, read-out: Dmax Category
Procedure, shortened: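 Jurkat cells with CRISPR knock-in N-terminal HiBiT-HPK1 were treated with CTMs (11-point, 3.16-fold, 10 uM to 0.1 nM final) for 24 hrs at 37° C. HiBiT lytic luminescence, with parental Jurkat as background and DMSO as 100%, gave % HPK1 remaining; four-parameter fit yielded DC50 and Dmax (100 minus lowest % remaining).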

[1] = maximum degradation vs DMSO vehicle control

T1 sequence (Q92918 whole entry): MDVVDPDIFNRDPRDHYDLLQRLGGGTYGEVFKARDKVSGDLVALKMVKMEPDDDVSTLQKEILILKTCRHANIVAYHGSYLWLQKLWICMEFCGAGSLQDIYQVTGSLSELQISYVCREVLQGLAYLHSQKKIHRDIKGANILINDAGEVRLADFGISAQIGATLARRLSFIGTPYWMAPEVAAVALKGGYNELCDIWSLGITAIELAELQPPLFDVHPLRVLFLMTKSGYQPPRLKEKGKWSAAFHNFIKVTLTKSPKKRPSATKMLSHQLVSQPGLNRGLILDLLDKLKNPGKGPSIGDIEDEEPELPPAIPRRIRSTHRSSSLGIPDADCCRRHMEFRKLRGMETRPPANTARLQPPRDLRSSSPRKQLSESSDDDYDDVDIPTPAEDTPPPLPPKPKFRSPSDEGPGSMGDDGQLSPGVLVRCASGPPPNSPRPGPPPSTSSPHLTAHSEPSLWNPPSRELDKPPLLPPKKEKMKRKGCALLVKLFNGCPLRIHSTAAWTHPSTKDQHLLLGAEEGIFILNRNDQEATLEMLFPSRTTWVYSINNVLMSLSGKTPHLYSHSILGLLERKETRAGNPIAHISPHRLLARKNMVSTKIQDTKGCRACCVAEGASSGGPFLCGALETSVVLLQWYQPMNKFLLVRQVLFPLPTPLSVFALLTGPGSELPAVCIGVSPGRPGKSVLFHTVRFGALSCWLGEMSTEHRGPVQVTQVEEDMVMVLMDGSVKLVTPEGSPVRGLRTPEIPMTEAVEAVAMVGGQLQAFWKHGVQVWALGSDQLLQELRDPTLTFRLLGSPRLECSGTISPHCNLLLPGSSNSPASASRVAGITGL

Structure (SMILES)	DC50	Dmax [1]	Dmax Category [1]
CC(C)n1cnc2cc(-c3ccc4c(c3)N([C@H]3C[C@@H](N5CCCCC5)C3)C(=O)C43CCN(C(=O)C4CC45CCN(C(=O)C4CCN(c6ccc(C7CCC(=O)NC7=O)cn6)CC4)C5)CC3)nc(NC3CC3)c21 (mixture of isomers) [Example 303, (3RS)-3-(6-{4-[1-({6-[4-(cyclopropylamino)-3-(propan-2-yl)-3H-imidazo[4,5-c]pyridin-6-yl]-2-oxo-1-[(1S,3S)-3-(piperidin-1-yl)cyclobutyl]-1,2-dihydrospiro[indole-3,4′-piperidin]-1′-yl}carbonyl)-5-azaspiro[2.4]heptane-5-carbonyl]piperidin-1-yl}pyridin-3-yl)piperidine-2,6-dione]	500 to 1000 nM	50 to 70%	
CC(C)n1cnc2cc(-c3ccc4c(c3)N([C@H]3C[C@@H](N5CCCCC5)C3)C(=O)C43CCN(C(=O)C4(C)CCN(C(=O)C5CCN(c6ccc([C@H]7CCC(=O)NC7=O)cn6)CC5)CC4)CC3)nc(NC3CC3)c21 (single isomer, unassigned) [Example 212]	< 100 nM		B (B: >70%-<85%)
CC(C)n1cnc2cc(-c3ccc4c(c3)N([C@H]3C[C@@H](N5CCCCC5)C3)C(=O)C43CCN(C(=O)[C@@H]4CCN(C(=O)[C@H]5CC[C@H](Nc6ccc(C7CCC(=O)NC7=O)cc6)CC5)C4)CC3)nc(Nc3ccncc3F)c21 (stereo partly drawn) [Example 4, 3-(4-(((1R,4R)-4-((R)-3-(6-(4-((3-fluoropyridin-4-yl)amino)-3-isopropyl-3H-imidazo[4,5-c]pyridin-6-yl)-2-oxo-1-((1S,3S)-3-(piperidin-1-yl)cyclobutyl)spiro[indoline-3,4′-piperidine]-1′-carbonyl)pyrrolidine-1-carbonyl)cyclohexyl)amino)phenyl)piperidine-2,6-dione]	< 100 nM	> 85%	
CC(C)n1cnc2cc(-c3ccc4c(c3)N([C@H]3C[C@@H](N5CCCCC5)C3)C(=O)C43CCN(C(=O)[C@@H]4CCN(C(=O)[C@H]5CC[C@H](Oc6ccc(C7CCC(=O)NC7=O)cc6)CC5)C4)CC3)nc(NC3CC3)c21 (stereo partly drawn) [Example 13, 3-(4-{[(1R,4R)-4-[(3R)-3-({6-[4-(cyclopropylamino)-3-(propan-2-yl)-3H-imidazo[4,5-c]pyridin-6-yl]-2-oxo-1-[(1S,3S)-3-(piperidin-1-yl)cyclobutyl]-1,2-dihydrospiro[indole-3,4′-piperidin]-1′-yl}carbonyl)pyrrolidine-1-carbonyl]cyclohexyl]oxy}phenyl)piperidine-2,6-dione]	< 100 nM	> 85%	
CC(C)n1cnc2cc(-c3ccc4c(c3)N([C@H]3C[C@@H](N5CCCCC5)C3)C(=O)C43CCN(C(=O)[C@@H]4CCN(C(=O)[C@H]5CC[C@H](Oc6ccc(C7CCC(=O)NC7=O)cc6)CC5)C4)CC3)nc(Nc3ccccc3F)c21 (stereo partly drawn) [Example 14, 3-(4-{[(1R,4R)-4-[(3R)-3-[(6-{4-[(2-fluorophenyl)amino]-3-(propan-2-yl)-3H-imidazo[4,5-c]pyridin-6-yl}-2-oxo-1-[(1S,3S)-3-(piperidin-1-yl)cyclobutyl]-1,2-dihydrospiro[indole-3,4′-piperidin]-1′-yl)carbonyl]pyrrolidine-1-carbonyl]cyclohexyl]oxy}phenyl)piperidine-2,6-dione]	< 100 nM	> 85%	
CC(C)n1cnc2cc(-c3ccc4c(c3)N([C@H]3C[C@@H](N5CCCCC5)C3)C(=O)C43CCN(C(=O)[C@@H]4CCN(C(=O)[C@H]5CC[C@H](Oc6ccc(C7CCC(=O)NC7=O)cc6)CC5)C4)CC3)nc(Nc3ccncc3F)c21 (stereo partly drawn) [Example 15, 3-(4-{[(1R,4R)-4-[(3R)-3-[(6-{4-[(3-fluoropyridin-4-yl)amino]-3-(propan-2-yl)-3H-imidazo[4,5-c]pyridin-6-yl}-2-oxo-1-[(1S,3S)-3-(piperidin-1-yl)cyclobutyl]-1,2-dihydrospiro[indole-3,4′-piperidin]-1′-yl)carbonyl]pyrrolidine-1-carbonyl]cyclohexyl]oxy}phenyl)piperidine-2,6-dione]	< 100 nM	> 85%	
CC(C)n1cnc2cc(-c3ccc4c(c3)N([C@H]3C[C@@H](N5CCCCC5)C3)C(=O)C43CCN(C(=O)[C@@H]4CCN(C(=O)[C@H]5CC[C@H](Oc6ccc(N7CCC(=O)NC7=O)cn6)CC5)C4)CC3)nc(NC3CC3)c21 [Example 20, 1-(6-{[(1R,4R)-4-[(3R)-3-({6-[4-(cyclopropylamino)-3-(propan-2-yl)-3H-imidazo[4,5-c]pyridin-6-yl]-2-oxo-1-[(1S,3S)-3-(piperidin-1-yl)cyclobutyl]-1,2-dihydrospiro[indole-3,4′-piperidin]-1′-yl}carbonyl)pyrrolidine-1-carbonyl]cyclohexyl]oxy}pyridin-3-yl)-1,3-diazinane-2,4-dione]	< 100 nM	70 to 85%	
CC(C)n1cnc2cc(-c3ccc4c(c3)N([C@H]3C[C@@H](N5CCCCC5)C3)C(=O)C43CCN(C(=O)[C@@H]4CCN(C(=O)[C@H]5CC[C@H](Oc6ccc(N7CCC(=O)NC7=O)cn6)CC5)C4)CC3)nc(Nc3ccccc3F)c21 [Example 21, 1-(6-{[(1R,4R)-4-[(3R)-3-[(6-{4-[(2-fluorophenyl)amino]-3-(propan-2-yl)-3H-imidazo[4,5-c]pyridin-6-yl}-2-oxo-1-[(1S,3S)-3-(piperidin-1-yl)cyclobutyl]-1,2-dihydrospiro[indole-3,4′-piperidin]-1′-yl)carbonyl]pyrrolidine-1-carbonyl]cyclohexyl]oxy}pyridin-3-yl)-1,3-diazinane-2,4-dione]	< 100 nM	> 85%	
CC(C)n1cnc2cc(-c3ccc4c(c3)N([C@H]3C[C@@H](N5CCCCC5)C3)C(=O)C43CCN(C(=O)[C@@H]4CCN(C(=O)[C@H]5CC[C@H](Oc6ccc(N7CCC(=O)NC7=O)cn6)CC5)C4)CC3)nc(Nc3ccncc3F)c21 [Example 22, 1-(6-{[(1R,4R)-4-[(3R)-3-[(6-{4-[(3-fluoropyridin-4-yl)amino]-3-(propan-2-yl)-3H-imidazo[4,5-c]pyridin-6-yl}-2-oxo-1-[(1S,3S)-3-(piperidin-1-yl)cyclobutyl]-1,2-dihydrospiro[indole-3,4′-piperidin]-1′-yl)carbonyl]pyrrolidine-1-carbonyl]cyclohexyl]oxy}pyridin-3-yl)-1,3-diazinane-2,4-dione]	< 100 nM	70 to 85%	
CC(C)n1cnc2cc(-c3ccc4c(c3)N([C@H]3C[C@@H](N5CCCCC5)C3)C(=O)C43CCN(C(=O)[C@@H]4CCN(C(=O)C5CCN(c6ccc(C7CCC(=O)NC7=O)cn6)CC5)C4)CC3)nc(Nc3ccccc3F)c21 (stereo partly drawn) [Example 24, 3-(6-(4-((R)-3-(6-(4-((2-fluorophenyl)amino)-3-isopropyl-3H-imidazo[4,5-c]pyridin-6-yl)-2-oxo-1-((1s,3S)-3-(piperidin-1-yl)cyclobutyl)spiro[indoline-3,4′-piperidine]-1′-carbonyl)pyrrolidine-1-carbonyl)piperidin-1-yl)pyridin-3-yl)piperidine-2,6-dione]	< 100 nM	> 85%	
CC(C)n1cnc2cc(-c3ccc4c(c3)N([C@H]3C[C@@H](N5CCCCC5)C3)C(=O)C43CCN(C(=O)[C@H]4CC[C@H](C(=O)N5CCC(Nc6ccc(C7CCC(=O)NC7=O)cn6)CC5)CC4)CC3)nc(Nc3ccccc3F)c21 (stereo partly drawn) [Example 26, 3-(6-((1-((1R,4R)-4-(6-(4-((2-fluorophenyl)amino)-3-isopropyl-3H-imidazo[4,5-c]pyridin-6-yl)-2-oxo-1-((1s,3S)-3-(piperidin-1-yl)cyclobutyl)spiro[indoline-3,4′-piperidine]-1′-carbonyl)cyclohexane-1-carbonyl)piperidin-4-yl)amino)pyridin-3-yl)piperidine-2,6-dione]	< 100 nM	70 to 85%	
